PubChem BioAssay AID248 (DTP/NCI, 2004)
Several values for one entry are separate records, joined by “and”; a condition that tells them apart may be missing. Identical values can stand only once. Toxic doses and inconclusive results are not listed. No stated cut-off is given here; in the data, active means T/C of 150% or more; inactive means T/C below 125%.

Test system: L1210 leukemia ip in BDF1 mice, survival T/C
Assay: NCI In Vivo Anticancer Drug Screen. Data for tumor model L1210 Leukemia (intraperitoneal) in B6D2F1 (BDF1) mice
Details: endpoint: mean survival time, higher = longer survival
How it was run: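 Mice bearing the transplanted tumor received compound or vehicle. Survival of the treated group was divided by that of the vehicle-treated control group to give the ratio.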

[1] = dose: 100.0 mg/kg/injection, schedule: Q04DX003 (ip), vehicle: saline with Tween-80
[2] = dose: 100.0 mg/kg/injection, schedule: Q01DX001 (ip), vehicle: carboxymethylcellulose (CMC)
[3] = dose: 200.0 mg/kg/injection, schedule: Q01DX001 (ip), vehicle: carboxymethylcellulose (CMC)
[4] = dose: 400.0 mg/kg/injection, schedule: Q01DX001 (ip), vehicle: carboxymethylcellulose (CMC)
[5] = dose: 100.0 mg/kg/injection, schedule: Q01DX009 (ip), vehicle: Klucel (hydroxypropylcellulose) (HPC)
[6] = dose: 100.0 mg/kg/injection, schedule: Q04DX003 (ip), vehicle: Klucel (hydroxypropylcellulose) (HPC)
[7] = dose: 100.0 mg/kg/injection, schedule: Q04DX002 (ip), vehicle: Klucel (hydroxypropylcellulose) (HPC)
[8] = dose: 200.0 mg/kg/injection, schedule: Q01DX009 (ip), vehicle: Klucel (hydroxypropylcellulose) (HPC)
[9] = dose: 200.0 mg/kg/injection, schedule: Q04DX002 (ip), vehicle: Klucel (hydroxypropylcellulose) (HPC)
[10] = dose: 400.0 mg/kg/injection, schedule: Q01DX009 (ip), vehicle: Klucel (hydroxypropylcellulose) (HPC)
[11] = dose: 400.0 mg/kg/injection, schedule: Q04DX002 (ip), vehicle: Klucel (hydroxypropylcellulose) (HPC)
[12] = dose: 100.0 mg/kg/injection, schedule: Q04DX003 (ip), vehicle: saline
[13] = dose: 200.0 mg/kg/injection, schedule: Q04DX003 (ip), vehicle: saline

Measured: T/C

COc1cccc(OC)c1OCCCN1CCOCC1
inactive: dose: 25.0 mg/kg/injection, schedule: Q04DX003 (ip), vehicle: saline with Tween-80 99 % of control | dose: 50.0 mg/kg/injection, schedule: Q04DX003 (ip), vehicle: saline with Tween-80 100 % of control | [1] 94 % of control

O=C(O)c1cccc2c1C(=O)c1ccccc1-2
inactive: dose: 100.0 mg/kg/injection, schedule: Q01DX001 (ip), vehicle: Klucel (hydroxypropylcellulose) (HPC) 93 % of control | dose: 200.0 mg/kg/injection, schedule: Q01DX001 (ip), vehicle: Klucel (hydroxypropylcellulose) (HPC) 106 % of control | dose: 400.0 mg/kg/injection, schedule: Q01DX001 (ip), vehicle: Klucel (hydroxypropylcellulose) (HPC) 101 % of control

CC(C)CC(C)OB(OC(C)CC(C)C)OC(C)CC(C)C (stereo not drawn)
inactive: dose: 50.0 mg/kg/injection, schedule: Q01DX001 (ip), vehicle: carboxymethylcellulose (CMC) 102 % of control | [2] 111 % of control | [3] 102 % of control | [4] 96 % of control

CCCCCCOP(=O)(CCCCCC)OCCCCCC
inactive: dose: 13.3 mg/kg/injection, schedule: Q01DX Z (ip), vehicle: methylcellulose (MC) 96 % of control | dose: 20.0 mg/kg/injection, schedule: Q01DX Z (ip), vehicle: methylcellulose (MC) 102 % of control | dose: 25.0 mg/kg/injection, schedule: Q01DX009 (ip), vehicle: Klucel (hydroxypropylcellulose) (HPC) 93 % of control | dose: 25.0 mg/kg/injection, schedule: Q04DX003 (ip), vehicle: Klucel (hydroxypropylcellulose) (HPC) 94 % of control | dose: 30.0 mg/kg/injection, schedule: Q01DX Z (ip), vehicle: methylcellulose (MC) 95 % of control | dose: 50.0 mg/kg/injection, schedule: Q01DX009 (ip), vehicle: Klucel (hydroxypropylcellulose) (HPC) 101 % of control | dose: 50.0 mg/kg/injection, schedule: Q04DX003 (ip), vehicle: Klucel (hydroxypropylcellulose) (HPC) 89 % of control | [5] 98 % of control | [6] 103 % of control

COc1cc(C(=O)NC2CC(C)CC(C)(C)C2)cc(OC)c1OC (stereo not drawn)
inactive: [5] 91 % of control | [7] 92 % of control | [8] 91 % of control | [9] 98 % of control | [10] 91 % of control | [11] 103 % of control

CC1C2C=CC(C2)C1C(=O)O (stereo not drawn)
inactive: [2] 98 % of control | [1] 96 % of control and 97 % of control and 88 % of control | [3] 96 % of control | dose: 200.0 mg/kg/injection, schedule: Q04DX003 (ip), vehicle: saline with Tween-80 89 % of control and 92 % of control and 91 % of control | [4] 96 % of control | dose: 400.0 mg/kg/injection, schedule: Q04DX003 (ip), vehicle: saline with Tween-80 99 % of control and 97 % of control

CCOC(=O)Cc1c(C)c2c(O)cc(O)cc2oc1=O
inactive: [2] 97 % of control | [3] 89 % of control | [4] 97 % of control

CCCCCCC1N(Cc2ccccc2N(C)C)CCCN1Cc1ccccc1N(C)C
inactive: dose: 75.0 mg/kg/injection, schedule: Q01DX001 (ip), vehicle: saline 94 % of control | dose: 150.0 mg/kg/injection, schedule: Q01DX001 (ip), vehicle: saline 94 % of control | dose: 300.0 mg/kg/injection, schedule: Q01DX001 (ip), vehicle: saline 89 % of control

COC(=O)[C@H]1[C@H]2C[C@@H]3c4[nH]c5cc(OC)ccc5c4CCN3C[C@H]2C[C@@H](OC(=O)c2cc(OC)c(OC)c(OC)c2)[C@@H]1OC
inactive: dose: 1.0 mg/kg/injection, schedule: Q01DX Z (ip), vehicle: carboxymethylcellulose (CMC) 100 % of control | dose: 1.56 mg/kg/injection, schedule: Q01DX001 (ip), vehicle: other 100 % of control | dose: 1.56 mg/kg/injection, schedule: Q01DX009 (ip), vehicle: saline 111 % of control | dose: 1.56 mg/kg/injection, schedule: Q04DX003 (ip), vehicle: other 95 % of control | dose: 2.0 mg/kg/injection, schedule: Q01DX Z (ip), vehicle: carboxymethylcellulose (CMC) 100 % of control | dose: 3.12 mg/kg/injection, schedule: Q01DX001 (ip), vehicle: other 96 % of control | dose: 3.12 mg/kg/injection, schedule: Q01DX009 (ip), vehicle: saline 109 % of control | dose: 3.12 mg/kg/injection, schedule: Q04DX003 (ip), vehicle: other 95 % of control | dose: 5.0 mg/kg/injection, schedule: Q01DX001 (ip), vehicle: other 92 % of control | dose: 5.25 mg/kg/injection, schedule: Q01DX009 (ip), vehicle: other 98 % of control | dose: 6.25 mg/kg/injection, schedule: Q01DX001 (ip), vehicle: other 96 % of control | dose: 6.25 mg/kg/injection, schedule: Q01DX009 (ip), vehicle: saline 101 % of control | dose: 6.25 mg/kg/injection, schedule: Q04DX003 (ip), vehicle: other 115 % of control | dose: 6.25 mg/kg/injection, schedule: Q04DX003 (ip), vehicle: saline 90 % of control | dose: 9.2 mg/kg/injection, schedule: Q04DX003 (ip), vehicle: other 101 % of control | dose: 10.0 mg/kg/injection, schedule: Q01DX001 (ip), vehicle: other 100 % of control | dose: 12.5 mg/kg/injection, schedule: Q01DX001 (ip), vehicle: carboxymethylcellulose (CMC) 103 % of control | dose: 12.5 mg/kg/injection, schedule: Q01DX009 (ip), vehicle: saline 104 % of control | dose: 12.5 mg/kg/injection, schedule: Q04DX003 (ip), vehicle: saline 108 % of control | dose: 14.0 mg/kg/injection, schedule: Q04DX003 (ip), vehicle: other 88 % of control | dose: 20.0 mg/kg/injection, schedule: Q01DX001 (ip), vehicle: other 97 % of control | dose: 21.0 mg/kg/injection, schedule: Q04DX003 (ip), vehicle: other 95 % of control | dose: 25.0 mg/kg/injection, schedule: Q01DX009 (ip), vehicle: saline 92 % of control | dose: 25.0 mg/kg/injection, schedule: Q04DX003 (ip), vehicle: saline 103 % of control | dose: 40.0 mg/kg/injection, schedule: Q01DX001 (ip), vehicle: other 97 % of control | dose: 80.0 mg/kg/injection, schedule: Q01DX001 (ip), vehicle: other 94 % of control

CCCOC(=O)c1ccc(O)cc1
inactive: [5] 87 % of control | [8] 94 % of control | [10] 102 % of control

CCOC(=O)Nc1ccc(OC)cc1
inactive: [5] 96 % of control | [6] 103 % of control | [8] 98 % of control | dose: 200.0 mg/kg/injection, schedule: Q04DX003 (ip), vehicle: Klucel (hydroxypropylcellulose) (HPC) 97 % of control | [10] 93 % of control | dose: 400.0 mg/kg/injection, schedule: Q04DX003 (ip), vehicle: Klucel (hydroxypropylcellulose) (HPC) 98 % of control

O=C(Nc1ccccc1)C(Cl)(Cl)Cl
inactive: dose: 50.0 mg/kg/injection, schedule: Q01DX001 (ip), vehicle: other 104 % of control | dose: 100.0 mg/kg/injection, schedule: Q01DX001 (ip), vehicle: other 102 % of control | [7] 106 % of control | dose: 200.0 mg/kg/injection, schedule: Q01DX001 (ip), vehicle: other 102 % of control | [9] 92 % of control | dose: 400.0 mg/kg/injection, schedule: Q01DX001 (ip), vehicle: other 104 % of control | [11] 89 % of control

CC(=O)C1(O)CCCCC1
inactive: dose: 100.0 mg/kg/injection, schedule: Q01DX009 (ip), vehicle: saline 104 % of control | [12] 92 % of control | dose: 200.0 mg/kg/injection, schedule: Q01DX009 (ip), vehicle: saline 98 % of control | [13] 98 % of control | dose: 400.0 mg/kg/injection, schedule: Q01DX009 (ip), vehicle: saline 109 % of control | dose: 400.0 mg/kg/injection, schedule: Q04DX003 (ip), vehicle: saline 94 % of control

C=CCNC(=S)Nc1ccc(OC(=O)NC(C)(C)C)cc1
inactive: [5] 94 % of control | [8] 95 % of control | [10] 89 % of control

O=C1C(O)=C(Cl)C(=O)C(OC2=C(Cl)C(=O)C(OC3=C(Cl)C(=O)C(OC4=C(Cl)C(=O)C(Cl)=C(Cl)C4=O)=C(Cl)C3=O)=C(Cl)C2=O)=C1Cl
inactive: [12] 97 % of control | [13] 105 % of control

CCOC(=O)c1ccc(N=NN(C)C)cc1
inactive: dose: 30.0 mg/kg/injection, schedule: Q01DX Z (ip), vehicle: carboxymethylcellulose (CMC) 97 % of control and 102 % of control | dose: 60.0 mg/kg/injection, schedule: Q01DX Z (ip), vehicle: carboxymethylcellulose (CMC) 107 % of control | dose: 90.0 mg/kg/injection, schedule: Q01DX Z (ip), vehicle: carboxymethylcellulose (CMC) 110 % of control and 124 % of control
